# PMC10376064, “ABC Transporter C1 Prevents Dimethyl Fumarate from Targeting Alzheimer’s Disease” (Biology, 2023)
# Target: T1, ABCC1 (Homo sapiens, UniProt P33527)
# T1 construct: membrane preparation of ABCC1-expressing H69AR cells
# Test: vanadate-sensitive ATPase stimulation in H69AR membranes; daunorubicin and rhodamine […] transport inhibition in H69AR cells
# Type: cell-based
# T1 sequence (P33527 whole entry): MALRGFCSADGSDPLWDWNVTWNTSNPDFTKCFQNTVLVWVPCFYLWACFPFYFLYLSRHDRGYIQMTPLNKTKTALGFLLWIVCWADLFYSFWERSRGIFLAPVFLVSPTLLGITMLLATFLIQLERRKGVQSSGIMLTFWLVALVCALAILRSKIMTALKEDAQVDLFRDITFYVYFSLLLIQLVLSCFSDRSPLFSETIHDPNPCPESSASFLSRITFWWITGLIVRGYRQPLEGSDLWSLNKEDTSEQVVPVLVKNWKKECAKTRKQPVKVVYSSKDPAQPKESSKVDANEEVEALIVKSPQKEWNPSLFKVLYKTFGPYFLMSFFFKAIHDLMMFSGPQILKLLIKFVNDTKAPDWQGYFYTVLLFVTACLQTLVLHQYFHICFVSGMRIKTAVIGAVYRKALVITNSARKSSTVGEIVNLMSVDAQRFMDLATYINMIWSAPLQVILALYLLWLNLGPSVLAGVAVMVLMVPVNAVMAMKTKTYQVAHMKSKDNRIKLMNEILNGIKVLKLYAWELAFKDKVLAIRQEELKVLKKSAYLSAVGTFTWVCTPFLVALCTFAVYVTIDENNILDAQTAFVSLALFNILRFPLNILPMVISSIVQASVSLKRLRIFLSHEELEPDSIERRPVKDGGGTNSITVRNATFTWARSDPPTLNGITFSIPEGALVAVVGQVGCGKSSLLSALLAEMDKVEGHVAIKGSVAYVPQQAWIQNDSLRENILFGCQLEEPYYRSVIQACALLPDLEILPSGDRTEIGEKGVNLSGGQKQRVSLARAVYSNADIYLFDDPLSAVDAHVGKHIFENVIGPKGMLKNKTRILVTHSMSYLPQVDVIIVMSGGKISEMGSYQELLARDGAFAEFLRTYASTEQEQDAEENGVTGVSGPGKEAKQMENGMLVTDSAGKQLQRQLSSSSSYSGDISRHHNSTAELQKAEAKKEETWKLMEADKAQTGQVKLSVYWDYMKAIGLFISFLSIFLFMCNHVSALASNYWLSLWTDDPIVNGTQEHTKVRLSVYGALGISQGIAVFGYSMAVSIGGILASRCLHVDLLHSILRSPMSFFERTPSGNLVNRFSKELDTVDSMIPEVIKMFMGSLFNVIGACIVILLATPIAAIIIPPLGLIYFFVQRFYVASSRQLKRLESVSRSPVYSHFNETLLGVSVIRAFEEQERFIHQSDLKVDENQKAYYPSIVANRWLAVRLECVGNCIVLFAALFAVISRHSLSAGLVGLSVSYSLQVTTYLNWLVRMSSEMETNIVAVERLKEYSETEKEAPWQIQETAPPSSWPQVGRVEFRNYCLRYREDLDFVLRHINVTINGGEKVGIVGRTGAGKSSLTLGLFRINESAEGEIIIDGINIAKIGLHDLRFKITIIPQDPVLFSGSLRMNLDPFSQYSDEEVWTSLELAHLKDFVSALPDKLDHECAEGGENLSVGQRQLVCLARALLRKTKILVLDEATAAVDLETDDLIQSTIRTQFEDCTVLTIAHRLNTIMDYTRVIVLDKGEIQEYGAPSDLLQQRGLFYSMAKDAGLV
structure (smiles),measurement,value
"COC(=O)CC(SC[C@H](NC(=O)CC[C@H](N)C(=O)O)C(=O)NCC(=O)O)C(=O)OC (stereo partly shown) [compound 9, DMS-SG]",vanadate-sensitive ATPase stimulation in H69AR membranes; daunorubicin and rhoda,~ 200 µM
